Measured values reported in paper PMC11352273, “The Proapoptotic Action of Pyrrolidinedione–Thiazolidinone Hybrids towards Human Breast Carcinoma Cells Does Not Depend on Their Genotype” (Cancers, 2024).

Columns and labels:
[1] = tested on: HCC1954 cells; experiment: [3H]-thymidine incorporation assay; format: cell-based; details: Homo sapiens; HCC1954, 24 h; read-out: IC50 (M ± SD) in [3H]-thymidine assay (DNA synthesis)
Method: (§1) Following a 24 h cell treatment, the incorporation of [^3H]-thymidine into the DNA of the breast tumor and normal cells was used to measure the antiproliferative activity of Les-6287. The MCF-7, MDA-MB-231, HCC1954, and MCF-10A cells were seeded into six-well plates (density 3 × 10^5 cells/well) and cultured for 24 h. Then, they were incubated under the same conditions for the next 24 h with a growth medium containing the tested compounds and reference drug (doxorubicin) at different concentrations (1, 2.5, 5, 10, 50 µM). After 24 h, the medium was changed to a fresh one without FBS. A total of 0.5 µCi of tritium-labeled thymidine (specific activity: 7 Ci/mmol) was added to cells for 4 h. The cells were washed with 1 mL of 0.05 M Tris-HCl buffer pH 7.4 containing 0.11 M NaCl and 1 mL of 5% trichloroacetic acid (TCA). Each well was filled with 1 mL of a 0.1 M NaOH solution containing 1% SDS to complete cell lysis. After 5 min, the acquired cell lysates were put into scintillation vials and pre-filled with two milliliters of scintillation liquid. The Scintillation Counter 1900 TR, TRI-CARB (Packard, Perkin Elmer, Inc., San Jose, CA, USA) was used to record the results. The effect of compounds on DNA synthesis was expressed as % of the control (non-treated cells).

[2] = tested on: MCF-10A cells; experiment: [3H]-thymidine incorporation assay; format: cell-based; details: Homo sapiens, 24 h, read-out: IC50 (M ± SD) in [3H]-thymidine assay (DNA synthesis)
Method: as §1

[3] = tested on: MCF-7 cells; experiment: [3H]-thymidine incorporation assay; format: cell-based; details: Homo sapiens, MCF7; MCF-7, 24 h; read-out: IC50 (M ± SD) in [3H]-thymidine assay (DNA synthesis)
Method: as §1

[4] = tested on: MDA-MB-231 cells; experiment: [3H]-thymidine incorporation assay; format: cell-based; details: Homo sapiens; MDA-MB-231, 24 h; read-out: IC50 (M ± SD) in [3H]-thymidine assay (DNA synthesis)
Method: as §1

[5] = tested on: BECN1 in MCF-7 cells; experiment: qPCR gene expression; format: cell-based, human; details: MCF-7, 24 h, 1 µM
Method: (§2) Total RNA was isolated using the RNeasy Mini Kit (Qiagen, Venlo, The Netherlands) according to the manufacturer’s protocol and quantified on a NanoDrop spectrophotometer (NanoDrop™ One/OneC, ThermoFisher, Waltham, MA, USA). Next, 1 μg of RNA from every sample was reverse transcribed using a High-Capacity cDNA Reverse Transcription Kit (ThermoFisher, Waltham, MA, USA) according to the standard manufacturer’s instructions. The expression of genes, namely MAP1LC3b (Bio-Rad, Hercules, CA, USA) and BECN1 (Bio-Rad, Hercules, CA, USA), was evaluated using SsoAdvanced Universal SYBR Green Supermix (Bio-Rad, Hercules, CA, USA) on the StepOne Plus system (ThermoFisher, Waltham, MA, USA). StepOne Software v2.3 (Thermo Fisher Scientific, Waltham, MA, USA) was used for results calculations. The results were normalized to GAPDH (Bio-Rad, Hercules, CA, USA) and untreated cells (control). Data were presented as a relative expression using the 2^−ΔΔCt method.

[6] = tested on: BECN1 in MDA-MB-231 cells; experiment: qPCR gene expression; format: cell-based, human; details: MDA-MB-231, 24 h, 1 µM
Method: as §2

[7] = tested on: MAP1LC3B in MCF-7 cells; experiment: qPCR gene expression; format: cell-based, human; details: MCF-7, 24 h, 1 µM
Method: as §2

[8] = tested on: MAP1LC3B in MDA-MB-231 cells; experiment: qPCR gene expression; format: cell-based, human; details: MDA-MB-231, 24 h, 1 µM
Method: as §2

[9] = tested on: ICAM-1 in MDA-MB-231 cells; experiment: ICAM-1 ELISA in culture supernatants; format: cell-based, human; details: for ICAM-1 concentration: 2 µM (highest dose), control 841.55 pg/mL
Method: (§3) In order to determine the Beclin-1 concentration in the cell lysates, the SimpleStep ELISA (Abcam, Cambridge, UK) Kit was used. MMP-2, MMP-9, and ICAM-1 concentrations were measured in culture supernatants using high-sensitivity human SimpleStep ELISA kits (Abcam, Cambridge, UK) according to the manufacturer’s protocols. The LC3B ELISA kit (BT LAB, Shanghai, China) was used to check the protein concentration in cell lysates from analyzed breast cancer cells. The procedure for preparing the samples was shown previously.

[10] = tested on: caspase 8 in MDA-MB-231 cells; experiment: Caspase-8 activity, FAM-FLICA flow cytometry; format: cell-based, human; details: MDA-MB-231, 24 h
Method: (§4) The assay was performed following the manufacturer’s instructions and the previously described methodology [25]. […] The cells were gathered, rinsed twice with chilled PBS, and reconstituted in an Apoptosis Wash Buffer. Then, 10 µL of freshly diluted FLICA solution was added to 290 µL of cell suspension and incubated for an hour at 37 °C. Following two rounds of washing with 2 mL of Apoptosis Wash Buffer, the cells were centrifuged, resuspended in 300 µL of the buffer, and then analyzed [25].

[11] = tested on: caspase 10 in MCF-7 cells; experiment: Caspase-10 activity, FAM-FLICA flow cytometry; format: cell-based, human; details: MCF-7, 24 h
[12] = tested on: caspase 10 in MDA-MB-231 cells; experiment: Caspase-10 activity, FAM-FLICA flow cytometry; format: cell-based, human; details: MDA-MB-231, 24 h
[13] = tested on: Beclin-1 in MCF-7 cells; experiment: Beclin-1 ELISA in cell lysates; format: cell-based, human; details: MCF-7, 24 h, 2 μM; untreated control 4.08 ng/mL
Method: as §3

[14] = tested on: Beclin-1 in MDA-MB-231 cells; experiment: Beclin-1 ELISA in cell lysates; format: cell-based, human; details: MDA-MB-231, 24 h, 2 μM; untreated control 11.79 ng/mL
Method: as §3

[15] = tested on: LC3B in MCF-7 cells; experiment: LC3B ELISA in cell lysates; format: cell-based, human; details: MCF-7, 24 h, compound concentration not stated; control 574.84 ng/mL
Method: as §3

[16] = tested on: LC3B in MDA-MB-231 cells; experiment: LC3B ELISA in cell lysates; format: cell-based, human; details: MDA-MB-231, 24 h, 2 μM; control 698.25 ng/mL
Method: as §3

[17] = tested on: MCF-7, MDA-MB-231, and HCC1954 cell lines; experiment: [3H]-thymidine incorporation assay, summary over cancer cell lines; format: cell-based; details: Homo sapiens; 24 h, MCF-7, MDA-MB-231, HCC1954; read-out: IC50 of DNA synthesis inhibition, range over cell lines
Method: as §1

[18] = tested on: mitogen-activated lymphocytes collected from the peripheral blood of a healthy donor; design: method as in PMID 37579525; details: cited from earlier work
[19] = tested on: caspase 3/7 in MDA-MB-231 cells; experiment: Caspase-3/7 activity, FAM-FLICA flow cytometry; details: MDA-MB-231, 24 h
Method: as §4

SMILES | IC50 [1] | IC50 [2] | IC50 [3] | IC50 [4] | BECN1 gene expression compared to control cells [5] | BECN1 gene expression compared to control cells [6] | MAP1LC3B gene expression compared to control cells [7] | MAP1LC3B gene expression compared to control cells [8] | ICAM-1 concentration ([9]; MDA-MB-231, 24 h) | other results
COc1cccc2c1C(=O)c1c(O)c3c(c(O)c1C2=O)C[C@@](O)(C(=O)CO)C[C@@H]3O[C@H]1C[C@H](N)[C@H](O)[C@H](C)O1 [Dox, doxorubicin, reference compound] | 1070 ± 40 nM | 3190 ± 430 nM | 660 ± 130 nM | 630 ± 110 nM | significantly increased | significantly increased | significantly increased | significantly increased | 583.04 pg/mL | ICAM-1 concentration versus control ([9]; MDA-MB-231, 24 h, 1.0 and 1.5 µM): increased
O=C1CC(N2C(=O)C(=CC(Cl)=Cc3ccc([N+](=O)[O-])cc3)SC2=S)C(=O)N1c1ccc(O)cc1 (stereo not shown) [Les-6287, 1-(4-hydroxyphenyl)-3-[5-[2-chloro-3-(4-nitrophenyl)prop-2-enylidene]-4-oxo-2-thioxothiazolidine-3-yl]pyrrolidine-2,5-dione] | 3670 ± 90 nM | 43500 ± 1160 nM | 2370 ± 20 nM | 2320 ± 40 nM | did not affect | did not affect | did not affect | did not affect | 157.25 pg/mL | cells with active caspase 8 ([10]; 1 µM): 18.23 ± 0.62%; cells with active caspase 8 ([10]; 1.5 µM): 23.50 ± 1.03%; cells with active caspase 10 ([11]; 1 µM): 11.58 ± 2.30%; cells with active caspase 10 ([11]; 1.5 µM): 20.50 ± 1.49%; cells with active caspase 10 ([12]; 1 µM): 14.48 ± 2.53%; cells with active caspase 10 ([12]; 1.5 µM): 19.78 ± 0.80%; concentration of Beclin-1 [13]: 2.78 ng/mL; concentration of Beclin-1 [14]: 9.83 ng/mL; concentration of LC3B [15]: 537.74 ng/mL; concentration of LC3B [16]: 483.50 ng/mL; inhibitory effect on ICAM-1 concentration relative to doxorubicin ([9]; MDA-MB-231): almost four times stronger; IC50 [17]: 2320 to 3670 nM; IC50 [18]: 29000 to 67000 nM; cells with active caspase 3/7 ([19]; 1 µM): 17.20 ± 1.58%; cells with active caspase 3/7 ([19]; 1.5 µM): 26.63 ± 8.32%
